Test results as given in patent US20070219186A1, “Pyrazolo[1,5-A]pyrimidine derivatives and methods of use thereof” (priority 2006, published 2007).
Like-named read-outs stand apart in the source and are kept apart here.

Target: T1, human B-Raf (Homo sapiens, UniProt P15056)
T1 construct: Flag; GST; made in house; host or cells: Sf9 insect cells (B-Raf); E. coli (MEK1-GST)
Assay: B-Raf Kinase to MEK1 ELISA
Type: biochemical
Conditions: for inhibition at 10 µM: read-out: % Inhib./10 uM; for % Inhib./10 uM: single point assay
Outline: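 Read-out is a DELFIA europium signal from phospho-MEK1 (Ser217/221) antibody after capture of GST-MEK1 (50 nM final) on anti-GST plates. Phosphorylation comes from Sf9-expressed Flag/GST human B-Raf (~20 ng) with ATP/MgCl2, 60 min RT, pH 7.2 MOPS.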

[1] = median, cpd concentrations from 10 μM to 30 nM in half log dilutions, read-out: Median IC50

T1 sequence (P15056 whole entry): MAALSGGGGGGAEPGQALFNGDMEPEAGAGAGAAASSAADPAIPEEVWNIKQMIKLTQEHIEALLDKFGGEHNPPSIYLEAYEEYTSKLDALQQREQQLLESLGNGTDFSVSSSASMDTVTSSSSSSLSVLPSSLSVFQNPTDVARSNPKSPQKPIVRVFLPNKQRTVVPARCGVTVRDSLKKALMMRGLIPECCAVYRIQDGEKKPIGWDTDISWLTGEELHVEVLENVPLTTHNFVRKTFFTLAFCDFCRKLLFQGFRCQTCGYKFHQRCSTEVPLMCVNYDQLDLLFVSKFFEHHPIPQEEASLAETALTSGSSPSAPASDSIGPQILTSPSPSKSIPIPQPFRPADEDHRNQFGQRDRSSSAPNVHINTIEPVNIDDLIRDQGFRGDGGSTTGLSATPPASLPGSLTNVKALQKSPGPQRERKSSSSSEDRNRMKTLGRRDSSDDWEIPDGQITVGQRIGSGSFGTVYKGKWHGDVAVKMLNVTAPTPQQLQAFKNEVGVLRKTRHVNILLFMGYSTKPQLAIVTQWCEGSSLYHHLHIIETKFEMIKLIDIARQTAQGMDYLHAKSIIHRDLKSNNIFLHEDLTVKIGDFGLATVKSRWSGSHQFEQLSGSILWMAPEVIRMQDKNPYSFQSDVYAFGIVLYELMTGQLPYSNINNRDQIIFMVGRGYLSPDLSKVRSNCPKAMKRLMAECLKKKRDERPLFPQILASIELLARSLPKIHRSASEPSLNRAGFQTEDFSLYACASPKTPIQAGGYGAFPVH

| SMILES | IC50 [1] [nM] | inhibition at 10 µM [%] | IC50 [nM] | % Inhib./10 uM [%] |
| --- | --- | --- | --- | --- |
| COCCOCC(=O)Nc1ccc(-c2cnn3c(-c4cccc(NC(=O)c5cccc(C(F)(F)F)c5)c4)ccnc23)cc1 [Example 235, N-{3-[3-(4-{[(2-methoxyethoxy)acetyl]amino}phenyl)pyrazolo[1,5-a]pyrimidin-7-yl]phenyl}-3-(trifluoromethyl)benzamide] | 169 | 84 | – | – |
| Cn1cccc1C(=O)Nc1cccc(-c2ccnc3cc(-c4ccncc4)nn23)c1 [Example 236, 1-methyl-N-[3-(2-pyridin-4-ylpyrazolo[1,5-a]pyrimidin-7-yl)phenyl]-1H-pyrrole-2-carboxamide] | – | 50 | – | – |
| O=C(Nc1cccc(-c2ccnc3cc(-c4ccncc4)nn23)c1)c1nccc2ccccc12 [Example 237, N-[3-(2-pyridin-4-ylpyrazolo[1,5-a]pyrimidin-7-yl)phenyl]isoquinoline-1-carboxamide] | > 10000 | 44 | – | – |
| Cn1c(C(=O)Nc2cccc(-c3ccnc4cc(-c5ccncc5)nn34)c2)cc2ccccc21 [Example 238, 1-methyl-N-[3-(2-pyridin-4-ylpyrazolo[1,5-a]pyrimidin-7-yl)phenyl]-1H-indole-2-carboxamide] | > 10000 | 50 | – | – |
| O=C(Nc1cccc(-c2ccnc3cc(-c4ccncc4)nn23)c1)c1ccc(Br)s1 [Example 239, 5-bromo-N-[3-(2-pyridin-4-ylpyrazolo[1,5-a]pyrimidin-7-yl)phenyl]thiophene-2-carboxamide] | 200 | 86 | – | – |
| CC(C)(C)CC(=O)Nc1cccc(-c2ccnc3cc(-c4ccncc4)nn23)c1 [Example 240, 3,3-dimethyl-N-[3-(2-pyridin-4-ylpyrazolo[1,5-a]pyrimidin-7-yl)phenyl]butanamide] | > 10000 | 10 | – | – |
| O=C(Nc1cccc(-c2ccnc3cc(-c4ccncc4)nn23)c1)c1cc(Cl)ccc1Br [Example 241, 2-bromo-5-chloro-N-[3-(2-pyridin-4-ylpyrazolo[1,5-a]pyrimidin-7-yl)phenyl]benzamide] | > 10000 | 34 | – | – |
| CCOC(=O)c1cnn2c(-c3cccc(NC(=O)c4cccc(C)c4)c3)ccnc12 [Example 242, ethyl 7-{3-[(3-methylbenzoyl)amino]phenyl}pyrazolo[1,5-a]pyrimidine-3-carboxylate] | > 10000 | 20 | – | – |
| CCOC(=O)c1cnn2c(-c3cccc(NC(=O)c4cc(C(C)(C)C)nn4C)c3)ccnc12 [Example 243, ethyl7-(3-{[(3-tert-butyl-1-methyl-1H-pyrazol-5-yl)carbonyl]amino}phenyl)pyrazolo[1,5-a]pyrimidine-3-carboxylate] | > 10000 | 18 | – | – |
| CCOC(=O)c1cnn2c(-c3cccc(NC(=O)Nc4nc5ccc(OC)cc5s4)c3)ccnc12 [Example 244, ethyl7-[3-({[(6-methoxy-1,3-benzothiazol-2-yl)amino]carbonyl}amino)phenyl]pyrazolo[1,5-a]pyrimidine-3-carboxylate] | > 10000 | 24 | – | – |
| CCOC(=O)c1cnn2c(-c3cccc(NC(=O)Nc4ccc5c(c4)OCO5)c3)ccnc12 [Example 245, ethyl7-(3-{[(1,3-benzodioxol-5-ylamino)carbonyl]amino}phenyl)pyrazolo[1,5-a]pyrimidine-3-carboxylate] | > 10000 | 18 | – | – |
| O=C(Nc1cccc(-c2ccnc3cc(-c4ccnc(NCCCN5CCOCC5)c4)nn23)c1)c1cccc(C(F)(F)F)c1 [Example 258, N-[3-(2-{2-[(3-morpholin-4-ylpropyl)amino]pyridin-4-yl}pyrazolo[1,5-a]pyrimidin-7-yl)phenyl]-3-(trifluoromethyl)benzamide] | – | – | 134 | 95 |
| O=C(Nc1cccc(-c2ccnc3cc(-c4ccnc(NCCN5CCC(O)CC5)c4)nn23)c1)c1cccc(C(F)(F)F)c1 [Example 263, N-{3-[2-(2-{[2-(4-hydroxypiperidin-1-yl)ethyl]amino}pyridin-4-yl)pyrazolo[1,5-a]pyrimidin-7-yl]phenyl}-3-(trifluoromethyl)benzamide] | – | – | 65.8 | 98 |

Further lines, with some results ahead:

| IC50 [1] [nM] | inhibition at 10 µM [%] | SMILES | IC50 [nM] | % Inhib./10 uM [%] |
| --- | --- | --- | --- | --- |
| > 10000 | 34 | CCOC(=O)c1cnn2c(-c3cccc(NC(=O)Nc4nc5ccc(Cl)cc5s4)c3)ccnc12 [Example 246, ethyl7-[3-({[(6-chloro-1,3-benzothiazol-2-yl)amino]carbonyl}amino)phenyl]pyrazolo[1,5-a]pyrimidine-3-carboxylate] | – | – |
| > 10000 | 15 | CCOC(=O)c1cnn2c(-c3cccc(NC(=O)Nc4cc(C)no4)c3)ccnc12 [Example 247, ethyl7-[3-({[(3-methylisoxazol-5-yl)amino]carbonyl}amino)phenyl]pyrazolo[1,5-a]pyrimidine-3-carboxylate] | – | – |
| > 10000 | 10 | CCOC(=O)c1cnn2c(-c3cccc(NC(=O)Nc4cc(C)on4)c3)ccnc12 [Example 248, ethyl7-[3-({[(5-methylisoxazol-3-yl)amino]carbonyl}amino)phenyl]pyrazolo[1,5-a]pyrimidine-3-carboxylate] | – | – |
| 471 | 76 | O=C1CN(c2cc3nccc(-c4cccc(NC(=O)c5cccc(C(F)(F)F)c5)c4)n3n2)CCN1 [Example 249, N-{3-[2-(3-oxopiperazin-1-yl)pyrazolo[1,5-a]pyrimidin-7-yl]phenyl}-3-(trifluoromethyl)benzamide] | – | – |
| > 10000 | 16 | O=C(Nc1cccc(-c2ccnc3cc(O)nn23)c1)c1cccc(C(F)(F)F)c1 [Example 250, N-[3-(2-hydroxypyrazolo[1,5-a]pyrimidin-7-yl)phenyl]-3-(trifluoromethyl)benzamide] | – | – |
| – | 42 | O=C1CCN(c2cc3nccc(-c4cccc(NC(=O)c5cccc(C(F)(F)F)c5)c4)n3n2)CC1 [Example 251, N-{3-[2-(4-oxopiperidin-1-yl)pyrazolo[1,5-a]pyrimidin-7-yl]phenyl}-3-(trifluoromethyl)benzamide] | – | – |
| 82 | 79 | COCC(=O)Nc1cccc(-c2cnn3c(-c4cccc(NC(=O)c5cccc(C(F)(F)F)c5)c4)ccnc23)c1 [Example 252, N-[3-(3-{3-[(methoxyacetyl)amino]phenyl}pyrazolo[1,5-a]pyrimidin-7-yl)phenyl]-3-(trifluoromethyl)benzamide] | – | – |
| 40 | 97 | CN(C)CC(=O)Nc1cccc(-c2cnn3c(-c4cccc(NC(=O)c5cccc(C(F)(F)F)c5)c4)ccnc23)c1 [Example 253, N-[3-(3-{3-[(N,N-dimethylglycyl)amino]phenyl}pyrazolo[1,5-a]pyrimidin-7-yl)phenyl]-3-(trifluoromethyl)benzamide] | – | – |
| 90 | 82 | COCCC(=O)Nc1cccc(-c2cnn3c(-c4cccc(NC(=O)c5cccc(C(F)(F)F)c5)c4)ccnc23)c1 [Example 254, N-[3-(3-{3-[(3-methoxypropanoyl)amino]phenyl}pyrazolo[1,5-a]pyrimidin-7-yl)phenyl]-3-(trifluoromethyl)benzamide] | – | – |
| 49 | 91 | CC(=O)NCC(=O)Nc1cccc(-c2cnn3c(-c4cccc(NC(=O)c5cccc(C(F)(F)F)c5)c4)ccnc23)c1 [Example 255, N-[3-(3-{3-[(N-acetylglycyl)amino]phenyl}pyrazolo[1,5-a]pyrimidin-7-yl)phenyl]-3-(trifluoromethyl)benzamide] | – | – |
| 122 | 97 | O=C(Cc1nnn[nH]1)Nc1cccc(-c2cnn3c(-c4cccc(NC(=O)c5cccc(C(F)(F)F)c5)c4)ccnc23)c1 [Example 256, N-[3-(3-{3-[(1H-tetrazol-5-ylacetyl)amino]phenyl}pyrazolo[1,5-a]pyrimidin-7-yl)phenyl]-3-(trifluoromethyl)benzamide] | – | – |
| 74.5 | 97 | CN(C)CCCNc1cc(-c2cc3nccc(-c4cccc(NC(=O)c5cccc(C(F)(F)F)c5)c4)n3n2)ccn1 [Example 257, N-{3-[2-(2-{[3-(dimethylamino)propyl]amino}pyridin-4-yl)pyrazolo[1,5-a]pyrimidin-7-yl]phenyl}-3-(trifluoromethyl)benzamide] | – | – |
| 91.4 | 99 | O=C(Nc1cccc(-c2ccnc3cc(-c4ccnc(NCCCN5CCCCC5)c4)nn23)c1)c1cccc(C(F)(F)F)c1 [Example 259, N-[3-(2-{2-[(3-piperidin-1-ylpropyl)amino]pyridin-4-yl}pyrazolo[1,5-a]pyrimidin-7-yl)phenyl]-3-(trifluoromethyl)benzamide] | – | – |
| – | 94 | O=C(Nc1cccc(-c2ccnc3cc(-c4ccnc(NCCCN5CCCC5=O)c4)nn23)c1)c1cccc(C(F)(F)F)c1 [Example 261, N-{3-[2-(2-{[3-(2-oxopyrrolidin-1-yl)propyl]amino}pyridin-4-yl)pyrazolo[1,5-a]pyrimidin-7-yl]phenyl}-3-(trifluoromethyl)benzamide] | 113 | – |
| 65.5 | 98 | O=C(Nc1cccc(-c2ccnc3cc(-c4ccnc(NCCCn5ccnc5)c4)nn23)c1)c1cccc(C(F)(F)F)c1 [Example 262, N-{3-[2-(2-{[3-(1H-imidazol-1-yl)propyl]amino}pyridin-4-yl)pyrazolo[1,5-a]pyrimidin-7-yl]phenyl}-3-(trifluoromethyl)benzamide] | – | – |
| 95.8 | 97 | O=C(Nc1cccc(-c2ccnc3cc(-c4ccnc(NCCN5CCCCC5)c4)nn23)c1)c1cccc(C(F)(F)F)c1 [Example 264, N-[3-(2-{2-[(2-piperidin-1-ylethyl)amino]pyridin-4-yl}pyrazolo[1,5-a]pyrimidin-7-yl)phenyl]-3-(trifluoromethyl)benzamide] | – | – |
